No end group written: not given here.
Tests used:
[1] = target: T1, semi-synthetic Ribonuclease (PDB ID 1SSC), immobilised as MBP-8xHis-1SSC (Bos taurus, UniProt P61823); experiment: biochemical; format: binding
T1 construct: made in house; host or cells: E. coli BL21 (DE3) T1R
T1 sequence (P61823 27-138 limits assumed): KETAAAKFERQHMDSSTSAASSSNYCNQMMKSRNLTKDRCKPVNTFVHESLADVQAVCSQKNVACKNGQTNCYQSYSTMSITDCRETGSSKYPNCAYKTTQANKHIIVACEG

[2] = target: T2, semi-synthetic Ribonuclease (PDB ID 1SSC), MBP-8xHis fusion construct (UniProt P61823 27-138); experiment: SPR; MBP-8xHis-1SSC immobilised to about 12000 RU by amine coupling on a CM5 chip; peptides as analytes, single-cycle kinetics, 2 nM to 20 uM; 25 °C; HBS-EP+ (10 mM HEPES pH 7.4, 3 mM EDTA, 150 mM NaCl, 0.05% Tween-20); Biacore 8K; 1:1 binding model; settings: both partners purified
T2 construct: also called MBP-8xHis-1SSC; psfRNAseA; source: E. coli BL21 (DE3) T1R, purified (IMAC, size exclusion chromatography)
T2 sequence: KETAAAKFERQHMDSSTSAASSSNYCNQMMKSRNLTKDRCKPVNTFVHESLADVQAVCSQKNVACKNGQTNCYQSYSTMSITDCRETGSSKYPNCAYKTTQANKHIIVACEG

PYVPVHFDASV [PYVPVHFDASV] gave a Kd [1] of 1220 nM.

B1: known peptide binder (11 residues) of the semi-synthetic Ribonuclease, PYVPVHFDASV (peptide)
peptide: PYVPVHFDASV
notes: also called WT; positive control; source: synthetic peptide
B1 gave a Kd [2] of 1200 nM.
